Measurements reported in the supplement of paper PMC10307832.

What follows are cell lines tested with CCn1c(-c2nonc2N)nc2c(C#CC(C)(C)O)ncc(OC[C@H]3CCCNC3)c21 + O=C(c1cc(Cc2n[nH]c(=O)c3ccccc23)ccc1F)N1CCN(C(=O)C2CC2)CC1 [Olaparib] (partner 8 µM) (assay: relative viability (nuclei count vs DMSO), 5 days (fraction); higher = more cells survive). Conditions: first compound 0.01 µM.
Method in brief: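 Relative viability divides the nuclei count in treated wells by that in vehicle wells. Lung cancer cell lines were seeded in 1536-well plates, dosed by pin tool the next day, and fixed and stained after 5 days in one step with final 0.05% Triton X-100, 1% formaldehyde and 1 ug/ml Hoechst. Dosing was a single drug or a fixed anchor-drug dose plus five library-drug doses (not always all listed) in √10 steps, and values are medians of duplicate plates imaged at 4×.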
For LK-2, the relative viability was 0.641. With NCI-H2087 the relative viability was 0.528. NCI-H2342 gave a relative viability of 0.517. For SK-MES-1, the relative viability was 0.658. For H3255, the relative viability was 0.571. With COR-L23 the relative viability was 0.329. COR-L 105 gave a relative viability of 0.658. Cell Line IA-LM has a relative viability of 0.942. For LOU-NH91, the relative viability was 0.936. For ChaGo-K-1, the relative viability was 0.397. NCI-H2170 was tested, and the relative viability was 0.654. NCI-H2405 gave a relative viability of 0.836. HOP-62 showed a relative viability of 0.396. For HCC-44, the relative viability was 0.995. A549 showed a relative viability of 0.407. Cell Line SW 900 has a relative viability of 0.871. LU99A showed a relative viability of 0.282. Work on BEN yielded a relative viability of 1.14. HARA was tested, and the relative viability was 0.909. With NCI-H1648 the relative viability was 0.937. Work on HCC-78 yielded a relative viability of 0.739. For NCI-H322M, the relative viability was 0.779. For LCLC-97TM1, the relative viability was 0.413. In the case of NCI-H2009, the relative viability is reported as 0.655. A-427 was tested, and the relative viability was 0.737. Work on NCI-H441 yielded a relative viability of 0.554. In the case of NCI-H661, the relative viability is reported as 0.713. Work on NCI-H1734 yielded a relative viability of 0.625. In the case of NCI-H460, the relative viability is reported as 0.363. With NCI-H2347 the relative viability was 0.567. For SK-LU-1, the relative viability was 0.49. For NCI-H1395, the relative viability was 0.464. With 201T the relative viability was 0.855. In the case of NCI-H1915, the relative viability is reported as 0.258. Cell Line HCC-827 has a relative viability of 0.602. LXF-289 showed a relative viability of 1.06. NCI-H23 showed a relative viability of 0.294. Cell Line NCI-H1299 has a relative viability of 0.954. NCI-H647 gave a relative viability of 0.467. CAL-12T was tested, and the relative viability was 0.599. Cell Line NCI-H1651 has a relative viability of 0.194. Cell Line EPLC-272H has a relative viability of 0.833. For NCI-H2228, the relative viability was 0.701. With NCI-H1792 the relative viability was 0.53. NCI-H1355 was tested, and the relative viability was 0.689. With NCI-H3122 the relative viability was 0.591. Work on NCI-H1437 yielded a relative viability of 0.633. With NCI-H1755 the relative viability was 0.969. Work on NCI-H2023 yielded a relative viability of 0.501. For HCC-15, the relative viability was 0.691. NCI-H1793 gave a relative viability of 0.765. PC-14 showed a relative viability of 0.309. In the case of EKVX, the relative viability is reported as 0.89.

Same assay, conditions: first compound 0.03162 µM
Cell Line NCI-H522 has a relative viability of 0.779. Work on NCI-H727 yielded a relative viability of 0.668. NCI-H1650 gave a relative viability of 0.837. EBC-1 was tested, and the relative viability was 0.706. With NCI-H1703 the relative viability was 0.506. Cell Line NCI-H1993 has a relative viability of 1.13. SW 1573 was tested, and the relative viability was 0.39. NCI-H838 gave a relative viability of 0.838. Work on LCLC-103H yielded a relative viability of 0.795. Cell Line NCI-H520 has a relative viability of 0.341. Cell Line NCI-H2126 has a relative viability of 0.927. EMC-BAC-2 was tested, and the relative viability was 0.501. In the case of NCI-H2085, the relative viability is reported as 0.807. Work on Calu-6 yielded a relative viability of 0.589. HCC-366 was tested, and the relative viability was 0.366. NCI-H1666 showed a relative viability of 0.722. LK-2 gave a relative viability of 0.566. NCI-H2342 showed a relative viability of 0.42. Work on SK-MES-1 yielded a relative viability of 0.72. H3255 was tested, and the relative viability was 0.59. COR-L23 was tested, and the relative viability was 0.429. COR-L 105 was tested, and the relative viability was 0.759. For IA-LM, the relative viability was 0.791. For LOU-NH91, the relative viability was 0.914. In the case of ChaGo-K-1, the relative viability is reported as 0.443. NCI-H2170 was tested, and the relative viability was 0.567. With NCI-H2405 the relative viability was 0.844. HOP-62 was tested, and the relative viability was 0.419. Cell Line HCC-44 has a relative viability of 1.02. In the case of A549, the relative viability is reported as 0.351. Cell Line SW 900 has a relative viability of 0.853. Work on LU99A yielded a relative viability of 0.312. Work on BEN yielded a relative viability of 1.19. With HARA the relative viability was 0.903. Cell Line NCI-H1648 has a relative viability of 0.851. In the case of HCC-78, the relative viability is reported as 0.732. In the case of NCI-H322M, the relative viability is reported as 0.71. With LCLC-97TM1 the relative viability was 0.509. In the case of NCI-H2009, the relative viability is reported as 0.673. With A-427 the relative viability was 0.203. Cell Line NCI-H441 has a relative viability of 0.726. NCI-H661 gave a relative viability of 0.755. NCI-H1734 showed a relative viability of 0.573. NCI-H460 gave a relative viability of 0.411. NCI-H2347 showed a relative viability of 0.512. SK-LU-1 showed a relative viability of 0.723. With NCI-H1395 the relative viability was 0.412. In the case of 201T, the relative viability is reported as 0.861. Cell Line NCI-H1915 has a relative viability of 0.277. Cell Line HCC-827 has a relative viability of 0.671. LXF-289 showed a relative viability of 1.1. With NCI-H23 the relative viability was 0.275. With NCI-H1299 the relative viability was 0.965. NCI-H647 was tested, and the relative viability was 0.775. Work on CAL-12T yielded a relative viability of 0.708. Work on NCI-H1651 yielded a relative viability of 0.189. Work on EPLC-272H yielded a relative viability of 0.853. With NCI-H2228 the relative viability was 0.895. Cell Line NCI-H1792 has a relative viability of 0.502. NCI-H1355 gave a relative viability of 0.774. Work on NCI-H3122 yielded a relative viability of 0.62. For NCI-H1437, the relative viability was 0.648. In the case of NCI-H1755, the relative viability is reported as 0.891. Cell Line NCI-H2023 has a relative viability of 0.454. HCC-15 was tested, and the relative viability was 0.735. Cell Line NCI-H1793 has a relative viability of 1.26. PC-14 showed a relative viability of 0.244. In the case of EKVX, the relative viability is reported as 0.986.

Same assay, conditions: first compound 0.1 µM
In the case of NCI-H522, the relative viability is reported as 0.724. NCI-H727 showed a relative viability of 0.751. In the case of NCI-H1650, the relative viability is reported as 0.893. EBC-1 gave a relative viability of 0.676. Work on NCI-H1703 yielded a relative viability of 0.468. In the case of NCI-H1993, the relative viability is reported as 0.963. In the case of SW 1573, the relative viability is reported as 0.477. Cell Line NCI-H838 has a relative viability of 0.804. For LCLC-103H, the relative viability was 0.747. Work on NCI-H520 yielded a relative viability of 0.236. With NCI-H2126 the relative viability was 0.977. For EMC-BAC-2, the relative viability was 0.503. Work on NCI-H2085 yielded a relative viability of 0.795. Work on Calu-6 yielded a relative viability of 0.605. Work on HCC-366 yielded a relative viability of 0.359. With NCI-H1666 the relative viability was 0.752. For NCI-H596, the relative viability was 0.72. LK-2 was tested, and the relative viability was 0.645. NCI-H2087 was tested, and the relative viability was 0.533. NCI-H2342 gave a relative viability of 0.486. With SK-MES-1 the relative viability was 0.678. H3255 gave a relative viability of 0.638. In the case of COR-L23, the relative viability is reported as 0.357. COR-L 105 showed a relative viability of 0.689. IA-LM showed a relative viability of 0.937. In the case of LOU-NH91, the relative viability is reported as 0.936. Work on ChaGo-K-1 yielded a relative viability of 0.408. For NCI-H2170, the relative viability was 0.645. For NCI-H2405, the relative viability was 0.821. In the case of HOP-62, the relative viability is reported as 0.445. Work on HCC-44 yielded a relative viability of 0.977. A549 gave a relative viability of 0.318. Cell Line SW 900 has a relative viability of 0.742. LU99A showed a relative viability of 0.251. Cell Line BEN has a relative viability of 1.15. HARA gave a relative viability of 0.808. NCI-H1648 gave a relative viability of 0.767. HCC-78 gave a relative viability of 0.827. Cell Line NCI-H322M has a relative viability of 0.693. With LCLC-97TM1 the relative viability was 0.347. In the case of NCI-H2009, the relative viability is reported as 0.682. A-427 gave a relative viability of 0.75. Work on NCI-H441 yielded a relative viability of 0.529. NCI-H661 gave a relative viability of 0.836.
